Test results as given in US20060014704A1, “Compounds and their preparation for the treatment of Alzheimer's disease by inhibiting beta-amyloid peptide production” (priority 2004, published 2006).
Entries after “also recorded” stand apart in the source; their conditions may differ. Where two headings read alike, the source gives them in different places.

What was measured:
[1] = system: Aβ42 production, CHO-APP/ΔE9PS1 cells; assay: Secreted Aβ ELISA in CHO cells co-expressing human APP and FAD mutant PS1 (ΔE9, L286V); type: cell-based, Chinese hamster; conditions: 50 μM, 8 hrs, FIG. 11B vs 11A
Protocol: (§1) The effects of Rg5 on the Aβ42 generation were much smaller as compared to Rgk351 and Rk1.
(§2) FIG. 10 depicts the effects of native ginsenosides on Aβ42 production. CHO cells stably transfected with human APP695 together with either wild-type (A, CHO-APP/PS1 cells) or ΔE9 FAD mutant (B, CHO-APP/ΔE9PS1 cells) forms of PS1 were used. Cells were treated with the indicated compounds (at 50 μM) for 8 hrs. Levels of secreted Aβ40 and Aβ42 in the medium were determined by ELISA and normalized to intracellular full-length APP. In CHO-APP/PS1 cells, average Aβ amounts in control samples were 320 pM for Aβ40 and 79 pM for Aβ42. The relative levels of Aβ and Aβ42 were normalized to values obtained from non-treated and vehicle-treated cells and are shown as % to control+s.d.). One of three representative experiments are shown.
(§3) CHO-APP/PS1 (A) and CHO-APP/ΔE9PS1 (B) cells were treated with the indicated compounds at 50 μM for 8 hrs and the levels of secreted Aβ40 and Aβ42 were determined as described in FIG. 1. […] The PS1-ΔE9 FAD mutation diminished the Aβ42 response to Rk1 treatment (B).

[2] = system: Aβ40 and Aβ42 production, CHO-APP/PS1 cells; assay: Secreted Aβ ELISA in CHO-APP/PS1 cells (wild-type PS1); type: cell-based, Chinese hamster; conditions: for potency of Aβ42-reducing activity (rank) / secretion of Aβ42: 50 μM, 8 hrs, FIG. 11; for secretion of Aβ42: heat-processing derived ginsenosides
Protocol: as §1, §2, §3

[3] = system: Aβ40 and Aβ42 secretion, primary embryonic cortical neurons; assay: Aβ secretion in primary embryonic cortical neurons derived from Tg2576 transgenic mice; type: cell-based, mouse
Source text: Treatment of Rk1 and Rg3 decreased the level of secreted Aβ40 and Aβ42.

γ-secretase = γ-secretase (Homo sapiens, UniProt P49768); assay: Cell-free γ-secretase assay (CHAPSO-solubilized membrane fractions, recombinant substrates, Aβ ELISA); type: biochemical
Protocol: (A) CHAPSO-solubilized membrane fractions were incubated with recombinant γ-secretase substrates together with the indicated compounds (at 100 μM) and the levels of Aβ42 and Aβ40 were determined by ELISA as described (27-29). (B) Dose-response of Aβ40 and Aβ42-lowering activity of Rk1 and (20S)Rg3 in a cell-free γ-secretase assay.
Next, the inhibitory effects of Rk1 and (20S)Rg3 on Aβ generation in an in vitro γ-secretase assay was studied. […] In contrast, naproxen, an NSAID without Aβ42-lowering activity, had no effects on Aβ42 production (FIG. 15A).

[4] = system: Aβ species, CHO-APP cells; assay: Mass spectrometric analysis of Aβ species produced from CHO-APP cells; type: cell-based, Chinese hamster; conditions: mass spectrometry, vs DMSO
Protocol: Note that treatment leads to a decrease in Aβ42 species (1-42), and elevation in both Aβ37 (1-37) and Aβ38 (1-38). Mass spectrometric analysis of Aβ species were performed as previously described (Wang R, Sweeny D, Gandy S E, Sisodia S S. The profile of soluble amyloid β-protein in cultured cell media. J. Bio. Chem. 1996; 271: 31894-31902).

[5] = system: Aβ42 production in mammalian cells; conditions: Tae-Wan Kim et al., patent application pending; cited from earlier work
[6] = system: Aβ40 and Aβ42 production, CHO cells stably transfected with human APP695; assay: Secreted Aβ40/Aβ42 ELISA in CHO cells expressing human APP (CHO-APP cells); type: cell-based, Chinese hamster; design: key to Aβ42-lowering activity: Aβ42-lowering activity (“Yes”); no profound effects (“No”); non-determined (“ND”); Ginsenosides that affected cell viability are indicated as “Cytotoxic.”; conditions: for preference for Aβ42 vs. Aβ40 in cell-based assay: FIG. 6 / FIG. 12B; for production of Aβ42 in cells: general statement; for Aβ42-lowering activity: summary of Tables 1-3
Protocol: The CHO cells were treated with the indicated compounds (at 50 μg/ml) for 8 hrs. Aβ42 levels in the medium were measured by ELISA and normalized to intracellular full-length APP.
The potential effects of ginsenosides and their analogues in treating AD were examined. First, a number of ginsenosides were screened based on their effects on Aβ generation. The effects of various ginsenosides on Aβ (e.g., Aβ40 and Aβ42) production was initially accessed by incubating the Chinese hamster ovary (CHO) cells expressing human APP(CHO-APP cells) with each ginsenoside purified from unprocessed ginseng (known as “white ginseng”). These representative ginsenosides included Rb1, Rb2, Rc, Rd, Re, Re, Rg1 and Rg2 and differ in their side chains and sugar moieties.
After 8 hours of incubation, the media were collected and the levels of secreted Aβ40 and Aβ42 were determined by ELISA.

[7] = system: full-length APP and APP C-terminal fragments, CHO-APP cells; assay: Western blot analysis of APP processing in CHO-APP cells; type: cell-based, Chinese hamster; conditions: cell lysates
Source text: (§4) FIG. 13. depicts an analysis of APP processing after Rk1 treatment. Steady-state levels of full-length APP and APP C-terminal fragments (APP-CTFs) were examined by Western blot analysis using anti-R1 antibody. […] Correlated Aβ42 levels for each sample are shown in the bottom panel.

[8] = system: full-length APP and APP C-terminal fragments, Neuro2a-APPsw cells; assay: Western blot analysis of APP processing in neuro2a cells expressing APPsw; type: cell-based, mouse; conditions: neuro2a cells expressing APPsw
Source text: as §4

cell viability = assay: Cell viability of treated cells; type: cell-based; design: key to affected cell viability (Cytotoxic): Aβ42-lowering activity (“Yes”); no profound effects (“No”); non-determined (“ND”); Ginsenosides that affected cell viability are indicated as “Cytotoxic.”
Protocol: as §3
Tables 1-3 Structure of ginsenosides utilized in the study and their effects on Aβ42 generation. They differ at the two or three side chains attached to the common triterpene backbone known as dammarane. The common structure skeleton for each group of ginsenosides is shown in the top panel. Ginsenosides that harbor Aβ42-lowering activity are indicated in the far right column of the tables: Aβ42-lowering activity (“Yes”), no profound effects (“No”), and non-determined (“ND”). Ginsenosides that affected cell viability are indicated as “Cytotoxic.” Abbreviation for carbohydrates are as follows: Glc, D-glucopyranosyl; Ara (pyr), L-arabinopyranosyl; Ara (fur), L-arabinofuranyosyl; Rha, L-rhamnopyranosyl.
Steaming ginseng at high temperature gave rise to additional ginsenosides with enhanced pharmacological activity, including (20S)Rg3, Rk1 and Rg5 (22-25). […] Aβ40 levels were not changed by treatment with any of the ginsenosides tested. The potency of Aβ42-lowering activity was highest with Rk1 and (20S)Rg3. […] These studies provide a structure-activity relationship between the chemical structures of ginsenosides and Aβ42-lowering activity, further providing the basis for designing additional Aβ42-lowering analogues as well as for defining a class of compounds that harbor Aβ42-lowering activity.

CC(C)=CCCC(C)(O)C1CCC2(C)C1C(O)CC1C3(C)CCC(OC4OC(CO)C(O)C(O)C4OC4OC(CO)C(O)C(O)C4O)C(C)(C)C3CCC12C [(20S)Rg3]
Aβ42-lowering response in PS1 ΔE9 FAD mutant cells compared to PS1 wild-type cells [1]: diminished
potency of Aβ42-reducing activity (rank) [2]: Rk1>/=(20S)Rg3>Rg5>(20R)Rg3; also recorded: highest
secretion of Aβ42 [2]: selectively lowered the secretion of Aβ42
level of secreted Aβ40 [3]: decreased
level of secreted Aβ42 [3]: decreased
Aβ generation in a cell-free γ-secretase assay (γ-secretase; FIG. 15): inhibits Aβ generation
Aβ42 generation in vitro (γ-secretase; cell-free γ-secretase assay, FIG. 15 (100 μM in A)): inhibited both Aβ40 and Aβ42 with a similar potency
Aβ40 generation in vitro (γ-secretase; cell-free γ-secretase assay, FIG. 15B): inhibited both Aβ40 and Aβ42 with a similar potency
IC50 (γ-secretase; cell-free γ-secretase assay, FIG. 15B, read-out: IC50 for Aβ40): 27 ± 4 µM
IC50 (γ-secretase; cell-free γ-secretase assay, FIG. 15B, read-out: IC50 for Aβ42): 26 ± 7 µM
Aβ37 (1-37) [4]: elevation
Aβ38 (1-38) [4]: elevation
Aβ42 species (1-42) [4]: decrease
production of Aβ42 in mammalian cells [5]: lower the production of Aβ42
preference for Aβ42 vs. Aβ40 in cell-based assay [6]: primarily affect Aβ42 production
production of Aβ42 in cells [6]: lower the production of Aβ42

CC(C)=CC/C=C(\C)[C@H]1CC[C@]2(C)[C@@H]1[C@H](O)C[C@@H]1[C@@]3(C)CC[C@H](O[C@@H]4O[C@H](CO)[C@@H](O)[C@H](O)[C@H]4O[C@@H]4O[C@H](CO)[C@@H](O)[C@H](O)[C@H]4O)C(C)(C)[C@@H]3CC[C@]12C [Rg5]
APP C-terminal fragments (γ-secretase substrates), steady-state levels [7]: increased accumulation
full-length APP levels [7]: not affected
Aβ42-lowering response in PS1 ΔE9 FAD mutant cells compared to PS1 wild-type cells [1]: diminished
potency of Aβ42-reducing activity (rank) [2]: Rk1>/=(20S)Rg3>Rg5>(20R)Rg3; also recorded: less effective
secretion of Aβ42 [2]: selectively lowered the secretion of Aβ42
effects on Aβ42 generation compared to Rgk351 and Rk1 ([2]; wild-type or FAD mutant presenilin 1, FIG. 8): much smaller
APP C-terminal fragments, steady-state levels [8]: increased accumulation
production of Aβ42 in mammalian cells [5]: lower the production of Aβ42
generation of Aβ42 (Aβ42 levels in the medium, ELISA, normalized to intracellular full-length APP) ([6]; 50 μg/ml, 8 hrs, FIG. 4): reduce the generation of Aβ42
Aβ42-lowering effect compared with other agents ([6]; CHO-APP cells): much smaller
preference for Aβ42 vs. Aβ40 in cell-based assay [6]: preferentially reduced Aβ42 (vs. Aβ40)
Aβ42 in the medium, dose-response ([6]; dose-dependent, FIG. 5 / FIG. 12A): reduced Aβ42; also recorded: lower Aβ42 in a dose-dependent manner
production of Aβ42 in cells [6]: lower the production of Aβ42
Aβ42 production ([6]; overnight treatment, FIG. 12B): reduce Aβ42 production
Aβ42-lowering activity [6]: Yes

CC(C)=CCC[C@](C)(O)[C@H]1CC[C@]2(C)[C@@H]1[C@H](O)C[C@@H]1[C@@]3(C)CC[C@H](O[C@@H]4O[C@H](CO)[C@@H](O)[C@H](O)[C@H]4O)C(C)(C)[C@@H]3CC[C@]12C [Rh2]
secretion of Aβ42 [2]: exhibited Aβ42-lowering effects
cell viability (cell viability; 50 μM treatment): partially affected
affected cell viability (Cytotoxic) (cell viability; summary of Tables 1-3): Cytotoxic
Aβ42-lowering activity [6]: Yes
